For five molecules, IC50 results are on record in PMC5802278, “Molecular and cellular mechanisms of HIF prolyl hydroxylase inhibitors in clinical trials” (Chemical Science, 2017).

Read-outs that look alike come from different tables or passages of the source.

Type in all cases: biochemical
In one experiment the target is T1, Ofd1 (Schizosaccharomyces pombe, UniProt Q11120).
T1 construct: His6 (N); made in house; host or cells: E. coli BL21(DE3)
T1 sequence (Q11120 1-515): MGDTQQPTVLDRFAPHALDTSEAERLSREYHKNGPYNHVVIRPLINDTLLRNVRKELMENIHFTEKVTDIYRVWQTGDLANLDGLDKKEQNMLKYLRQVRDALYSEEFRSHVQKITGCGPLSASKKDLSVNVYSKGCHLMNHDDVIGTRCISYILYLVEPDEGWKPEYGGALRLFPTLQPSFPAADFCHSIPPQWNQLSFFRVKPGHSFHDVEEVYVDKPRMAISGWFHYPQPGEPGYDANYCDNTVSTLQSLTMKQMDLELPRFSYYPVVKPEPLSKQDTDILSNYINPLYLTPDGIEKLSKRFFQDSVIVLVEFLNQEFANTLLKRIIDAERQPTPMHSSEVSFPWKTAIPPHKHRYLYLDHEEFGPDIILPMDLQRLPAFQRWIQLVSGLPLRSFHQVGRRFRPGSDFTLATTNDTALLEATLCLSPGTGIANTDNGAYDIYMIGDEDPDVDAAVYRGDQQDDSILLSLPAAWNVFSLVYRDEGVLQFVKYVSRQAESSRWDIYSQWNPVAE
Nature of the experiment: MALDI-TOF MS Ofd1 hydroxylation assay.

For a further experiment, the target named is JARID1B (KDM5B) (Homo sapiens, UniProt Q9UGL1). Nature of the experiment: AlphaScreen histone demethylase assay. For orientation: Bead proximity is the source of the signal in Alpha formats.
JARID1B (KDM5B), sequence (Q9UGL1 whole entry): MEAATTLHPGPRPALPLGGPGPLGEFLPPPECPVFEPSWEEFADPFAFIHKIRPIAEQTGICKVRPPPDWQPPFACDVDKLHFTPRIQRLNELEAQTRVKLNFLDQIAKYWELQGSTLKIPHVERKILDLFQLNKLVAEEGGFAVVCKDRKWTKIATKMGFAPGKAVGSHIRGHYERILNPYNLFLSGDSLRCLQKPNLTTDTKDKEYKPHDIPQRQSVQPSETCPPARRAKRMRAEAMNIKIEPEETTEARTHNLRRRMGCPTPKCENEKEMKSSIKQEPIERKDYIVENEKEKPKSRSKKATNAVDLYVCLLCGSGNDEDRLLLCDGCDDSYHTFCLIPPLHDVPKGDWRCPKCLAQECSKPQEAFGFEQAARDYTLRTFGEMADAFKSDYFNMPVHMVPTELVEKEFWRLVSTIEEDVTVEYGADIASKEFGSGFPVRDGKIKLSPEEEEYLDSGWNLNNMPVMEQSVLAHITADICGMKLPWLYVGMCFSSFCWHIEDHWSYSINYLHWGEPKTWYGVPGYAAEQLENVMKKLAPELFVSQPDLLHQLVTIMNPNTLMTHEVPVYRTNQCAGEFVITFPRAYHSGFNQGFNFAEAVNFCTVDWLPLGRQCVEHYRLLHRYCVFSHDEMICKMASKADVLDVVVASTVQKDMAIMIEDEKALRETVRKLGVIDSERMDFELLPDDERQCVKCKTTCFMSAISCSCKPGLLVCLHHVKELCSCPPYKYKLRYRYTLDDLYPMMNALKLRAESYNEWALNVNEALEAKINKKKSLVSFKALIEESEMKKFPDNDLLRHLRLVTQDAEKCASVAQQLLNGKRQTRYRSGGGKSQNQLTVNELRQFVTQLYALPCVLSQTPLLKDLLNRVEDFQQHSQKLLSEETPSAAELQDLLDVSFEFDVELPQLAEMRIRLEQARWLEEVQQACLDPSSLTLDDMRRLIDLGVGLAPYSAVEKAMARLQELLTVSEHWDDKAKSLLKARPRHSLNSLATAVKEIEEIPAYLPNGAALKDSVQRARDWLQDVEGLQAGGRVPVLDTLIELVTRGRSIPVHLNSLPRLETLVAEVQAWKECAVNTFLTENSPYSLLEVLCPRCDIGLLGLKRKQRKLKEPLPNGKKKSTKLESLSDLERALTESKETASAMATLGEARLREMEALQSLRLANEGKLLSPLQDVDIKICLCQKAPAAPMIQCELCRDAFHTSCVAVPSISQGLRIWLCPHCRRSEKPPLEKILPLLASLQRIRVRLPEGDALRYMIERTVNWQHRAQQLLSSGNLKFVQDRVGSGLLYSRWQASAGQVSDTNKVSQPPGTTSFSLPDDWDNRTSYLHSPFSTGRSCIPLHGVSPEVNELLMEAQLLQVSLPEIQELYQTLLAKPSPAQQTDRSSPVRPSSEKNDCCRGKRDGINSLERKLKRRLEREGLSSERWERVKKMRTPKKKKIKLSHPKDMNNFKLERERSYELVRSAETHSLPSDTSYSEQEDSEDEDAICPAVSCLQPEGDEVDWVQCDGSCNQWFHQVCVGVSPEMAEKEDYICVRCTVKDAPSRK
For a further experiment, the target named is T2, JARID1A (KDM5A) (Homo sapiens, UniProt P29375).
T2 sequence (P29375 12-797 limits assumed): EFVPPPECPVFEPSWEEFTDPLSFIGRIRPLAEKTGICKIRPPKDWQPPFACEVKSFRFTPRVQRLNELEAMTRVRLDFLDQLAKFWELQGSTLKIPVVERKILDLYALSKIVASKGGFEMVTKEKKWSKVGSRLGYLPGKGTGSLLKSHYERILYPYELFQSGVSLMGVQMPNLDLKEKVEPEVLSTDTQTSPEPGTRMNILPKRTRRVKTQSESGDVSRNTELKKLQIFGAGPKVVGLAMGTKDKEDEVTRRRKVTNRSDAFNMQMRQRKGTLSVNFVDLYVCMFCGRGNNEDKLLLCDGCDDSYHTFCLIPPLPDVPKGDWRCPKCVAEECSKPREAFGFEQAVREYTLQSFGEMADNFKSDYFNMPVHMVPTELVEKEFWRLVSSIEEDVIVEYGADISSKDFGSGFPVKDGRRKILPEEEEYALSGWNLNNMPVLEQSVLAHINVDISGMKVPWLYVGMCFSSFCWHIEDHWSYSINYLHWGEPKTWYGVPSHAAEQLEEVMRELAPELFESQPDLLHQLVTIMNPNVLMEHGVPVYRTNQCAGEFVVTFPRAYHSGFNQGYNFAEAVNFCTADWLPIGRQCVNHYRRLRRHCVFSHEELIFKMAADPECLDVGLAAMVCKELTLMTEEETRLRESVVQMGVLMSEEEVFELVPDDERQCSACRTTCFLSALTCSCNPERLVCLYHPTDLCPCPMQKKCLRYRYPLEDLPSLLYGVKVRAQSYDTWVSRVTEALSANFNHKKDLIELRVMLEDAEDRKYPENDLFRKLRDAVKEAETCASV
Nature of the experiment: AlphaScreen histone demethylase assay.

Where [1] appears, read: isolated recombinant enzyme, 1 μM, read-out: IC50 Ofd1.

As for `CC(C)(C)OC(=O)c1ccc(-n2[nH]cc(-n3ccnn3)c2=O)nc1` [IOX4], the IC50 came to 41.3 µM at Ofd1, 87 µM on JARID1B (KDM5B) (read-out: IC50 JARID1B (KDM5B)) and 53 µM at JARID1A (KDM5A) (read-out: IC50 JARID1A (KDM5A)).
Turning to `O=C(O)CNC(=O)c1ncc(-c2cccc(Cl)c2)cc1O` [Vadadustat], the IC50 is 30 µM at JARID1B (KDM5B) (read-out: IC50 JARID1B (KDM5B)) and more than 100 µM at JARID1A (KDM5A) (read-out: IC50 JARID1A (KDM5A)).
As to `O=C(O)CNC(=O)C1C(=O)N(C2CCCCC2)C(=O)N(C2CCCCC2)C1=O` [GSK1278863], the half-maximal inhibitory concentration (IC50) on Ofd1 was 23.9 µM; against JARID1B (KDM5B), more than 100 µM; at JARID1A (KDM5A), more than 100 µM.
For the molecule `Cc1nc(C(=O)NCC(=O)O)c(O)c2ccc(Oc3ccccc3)cc12` [FG-4592], the IC50 is 8.5 µM at Ofd1 (setting [1]), more than 100 µM at JARID1B (KDM5B) (read-out: IC50 JARID1B (KDM5B)) and more than 100 µM at JARID1A (KDM5A) (read-out: IC50 JARID1A (KDM5A)).
For the molecule `O=c1c(-n2ccnn2)c[nH]n1-c1cc(N2CCOCC2)ncn1` [Molidustat], the IC50 at Ofd1 (setting [1]) was 10.3 µM; at JARID1B (KDM5B) (read-out: IC50 JARID1B (KDM5B)), more than 100 µM; at JARID1A (KDM5A) (read-out: IC50 JARID1A (KDM5A)) it was more than 100 µM.

The term IC50 denotes the midpoint of a concentration-inhibition curve.
